This is an account of results in PubChem BioAssay AID1963837 (Molecular Pharmacology Branch, DTP, NCI, 2024).

The subject of this assay is 843126-344-R-J1-PDC complex spheroid viability. Briefly: Anticancer human tumor 843126-344-R-J1-PDC patient-derived melanoma cell line growth inhibition [POLQ]. As to conditions: for viability, T/C: stronger effect = lower value. Here is the method:
Multicellular complex tumor spheroid response to Polymerase (POL) inhibitors (novobiocin, ART-558, RP6685) in combination with a variety of drugs and investigational agents in selected tumor cell lines
The POL inhibitors (novobiocin, ART-558, and RP6685) were evaluated both individually and in combination with standard of care and investigational anticancer small molecules within a complex spheroid model of solid tumors. . Complex spheroids include a stromal component modeled by human endothelial cells (HUVEC) and fibroblasts modeled by human mesenchymal stem cells (MSCs). The concentration ranges selected for each drug and investigational agent were based upon clinically achievable concentrations if the clinical Cmax of the agent was known.
Compounds. The drugs and investigational agents: novobiocin (NSC847541), ART-558 (NSC835418), RP-6685 (NSC848927), peposertib (NSC802822), ceralasertib (NSC780249), elimusertib (NSC800525), camonsertib (NSC841442), AZD-1390 (NSC803789), olaparib (NSC753686), talazoparib (NSC767125), rucaparib (NSC756644), sotorasib (NSC818433), MRTX-1133 (NSC836407), SN-38 (NSC673596), topotecan (NSC609699), epotoside (NSC141540), doxorubicin (NSC123127), gemcitabine (NSC613327), 5-fluorouracil (NSC19893), paclitaxel (NSC125973), vemurafenib (NSC761431), MSA-2 (NSC828583), SN-011 (NSC837082), adavosertib (NSC754352), prexasertib (NSC758257), carboplatin (NSC241240) and oxaliplatin (NSC266046), were obtained from the National Cancer Institute (NCI) Developmental Therapeutics Program Chemical Repository (21). The FDA-approved anticancer drug set is available from the Developmental Therapeutics Program at https://dtp.cancer.gov/organization/dscb/obtaining/. […] The stock solutions were prepared in dimethyl sulfoxide (DMSO, Sigma-Aldrich, St. Louis, MO, cat. D2650), except for the platinum compounds which were prepared in saline (Quality Biological, Gaithersburg, MD, cat. 114-055-101), at 800-fold the tested concentration and stored at -70 degrees C prior to their use. All drugs and investigational agents were tested over a range starting from a high concentration at or near the clinical Cmax and decreasing in half-log increments. If the clinical Cmax for an agent had not been determined, the highest concentration tested was 10 microM, except for SN-38, which was tested at a high concentration of 1 microM.
Cell Culture. All cells were maintained in an incubator at 37 degrees C and 5% CO2 with 95% humidity. The PDC lines were cultured according to standard operating procedures established by the NCI PDMR (https://pdmr.cancer.gov). Table 3 of the manuscript, lists the cell lines along with the number of the three cell types plated to form the mct-spheroids and media for tumor cell growth. After thawing, all PDC lines, except 997537-175-T-J1-PDC and 415267-285-R-J2-PDC, were cultured in Matrigel-coated flasks prepared with a working solution of 1X Ham's F-12 nutrient mix, without supplementation (Thermo Fisher Scientific, cat. 11765054), 100 U/mL penicillin-streptomycin (Thermo Fisher Scientific, cat. 15140122), and 2.5% Matrigel (Corning Inc., Corning, NY, cat. 354248) for the first three passages. The two PDC lines 997537-175-T-J1-PDC and 415267-285-R-J2-PDC were cultured on uncoated flasks. The 857933-349-R-J2-PDC line was cultured in 6C/Colon 1B media containing advanced DMEM/F-12 (Thermo Fisher Scientific, cat. 12634028), 10 mM HEPES (Thermo Fisher Scientific, cat. 15630080), 1X GlutaMAX supplement (Thermo Fisher Scientific, cat. 35050061), 0.1 mg/mL primocin (InvivoGen, San Diego, CA, cat. ant-pm-2), 10% defined fetal bovine serum, heat inactivated (HyClone Laboratories Inc., Logan, UT, cat. SH30070.03HI), 50% L-WRN conditioned media (ATCC, cat. CRL-3276), 1.25 mM N-Acetyl-L-cysteine (Sigma-Aldrich, cat. A9165), 10 mM nicotinamide (Sigma-Aldrich, cat. N0636), 1X B-27 supplement (Thermo Fisher Scientific, cat. 17504044), 1X N-2 supplement (Thermo Fisher Scientific, cat. […]

Setting [1] is: compound alone, run of 01/08/2024.

Values joined by “and” are separate entries in the source; they are usually repeats but may differ in a detail not shown here. Equal entries are not always repeated.
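Throughout, for viability, T/C: spheroids exposed to drugs for seven days before readout.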

As a reminder, the viability, T/C is the ratio of treated to control. As usually defined, the IC50 is the concentration needed to halve the response being measured. In the case of `C#Cc1c(F)ccc2cc(O)cc(-c3ncc4c(N5CC6CCC(C5)N6)nc(OCC56CCCN5CC(F)C6)nc4c3F)c12` (centres undefined), the viability, T/C reads like this: (compound 0.0316 µM) 90.2% and 115% and 80.5%; (compound 0.1 µM) 116% and 88.3% and 91.5%; (compound 0.316 µM) 96.1% and 97.6% and 95.8%; (compound 1 µM) 78.2% and 100% and 82.2%; (compound 3.16 µM) 95.1% and 96.5% and 95.2%; (compound 10 µM) 87.4% and 85.2% and 85.5%. The IC50 (curve of compound) was more than 10000 nM.

Take `CC1COCCN1c1cc(C2(O)CC3CCC(C2)O3)c2cnn(-c3ccn[nH]3)c2n1` (centres undefined): the viability, T/C by setting is: (compound 0.0316 µM) 93.2% and 82.1% and 81.5%; (compound 0.1 µM) 66.9% and 57.4% and 68.6%; (compound 0.316 µM) 63.7% and 52.7% and 51.1%; (compound 1 µM) 38% and 44.3% and 35.9%; (compound 3.16 µM) 29.8% and 23.2% and 26%; (compound 10 µM) 20% and 15.3% and 18.9%. For the same molecule, the IC50 (curve of compound) was 527 nM and 355 nM and 353 nM.

For `CCc1cc2c(N3CCc4c(cc(Cn5ccnc5)cc4-c4cn(C)nc4C(F)(F)F)C3=O)cc(C)nc2c(OC)n1`, the viability, T/C is 103% and 106% and 77.7% (compound 0.0316 µM); 81.1% and 72.2% and 85.4% (compound 0.1 µM); 76.4% and 87.8% and 98.1% (compound 0.316 µM); 64.2% and 76.7% and 85.2% (compound 1 µM); 71.5% and 72.6% and 64.6% (compound 3.16 µM); 54.2% and 60.3% (compound 10 µM). In addition, where the note is “curve of compound”, the IC50 was more than 10000 nM.

Consider `COC1C(OC(N)=O)C(O)C(Oc2ccc3c(O)c(NC(=O)c4ccc(O)c(CC=C(C)C)c4)c(=O)oc3c2C)OC1(C)C` (centres undefined), for which the viability, T/C (compound 1 µM) was 92% [middle of 13 runs]. Further, the IC50 under setting [1] was more than 10000 nM.

`COc1cc2cc(C(=O)CCC(=O)O)sc2cc1OC`: the viability, T/C (compound 0.0316 µM) was 87.3% and 78.3% and 95.9%; the viability, T/C (compound 0.1 µM) is 84.1% and 94.8% and 93.8%; the viability, T/C (compound 0.316 µM) is 94.1% and 97.4% and 110%; the viability, T/C (compound 1 µM) was 89.5% and 93.5% and 88.7%; the viability, T/C (compound 3.16 µM) is 86.9% and 84.8% and 98.1%; the viability, T/C (compound 10 µM) was 112% and 90.1% and 96.6%. Moreover, the 50% inhibitory concentration (IC50) (curve of compound) is more than 10000 nM.

In the case of `Cc1cccc(N(C)C(=O)C2C(O)CCN2c2nc(C)cc(C(F)(F)F)c2C#N)c1` (centres undefined), the viability, T/C is 100% [middle of 12 runs] (compound 0.316 µM), 97.7% [middle of 12 runs] (compound 1 µM) and 95.7% [middle of 12 runs] (compound 10 µM). Moreover, the IC50 is, setting by setting: under setting [1], more than 10000 nM; (compound alone, run of 01/19/2024) more than 10000 nM.

In the case of `O=C(Nc1ccc(O)c(NS(=O)(=O)c2ccc(F)cc2)c1)c1ccc(-c2ccccc2)cc1`, the viability, T/C runs as follows: (compound 0.0316 µM) 105% and 76% and 99.6%; (compound 0.1 µM) 95.6% and 92.3% and 104%; (compound 0.316 µM) 105% and 88.3% and 87.2%; (compound 1 µM) 99.5% and 85.9% and 100%; (compound 3.16 µM) 87.3% and 85.3% and 95.2%; (compound 10 µM) 74.3% (2×) and 75.3%. Also, the IC50 (curve of compound) was more than 10000 nM.

As to `C=CCn1c(=O)c2cnc(Nc3ccc(N4CCN(C)CC4)cc3)nc2n1-c1cccc(C(C)(C)O)n1` + COC1C(OC(N)=O)C(O)C(Oc2ccc3c(O)c(NC(=O)c4ccc(O)c(CC=C(C)C)c4)c(=O)oc3c2C)OC1(C)C, the IC50 by setting is: (curve of first compound, second compound 0.0316 µM) more than 1000 nM; (curve of first compound, second compound 0.1 µM) more than 1000 nM; (curve of first compound, second compound 0.316 µM) more than 1000 nM; (curve of first compound, second compound 1 µM) more than 1000 nM; (curve of first compound, second compound 3.16 µM) more than 1000 nM; (curve of first compound, second compound 10 µM) more than 1000 nM. Moreover, the viability, T/C (second compound 0.0316 µM, first compound 0.00316 µM) was 114%; the viability, T/C (second compound 0.0316 µM, first compound 0.01 µM) is 84%; the viability, T/C (second compound 0.0316 µM, first compound 0.0316 µM) was 86.6%; the viability, T/C (second compound 0.0316 µM, first compound 0.1 µM) was 81.5%; the viability, T/C (second compound 0.0316 µM, first compound 0.316 µM) was 89.4%; the viability, T/C (second compound 0.0316 µM, first compound 1 µM) was 80%. Moreover, the viability, T/C is, setting by setting: (second compound 0.1 µM, first compound 0.00316 µM) 93.7%; (second compound 0.1 µM, first compound 0.01 µM) 90.4%; (second compound 0.1 µM, first compound 0.0316 µM) 99.5%; (second compound 0.1 µM, first compound 0.1 µM) 82.8%; (second compound 0.1 µM, first compound 0.316 µM) 85.7%; (second compound 0.1 µM, first compound 1 µM) 70.6%. Further, the viability, T/C is, setting by setting: (second compound 0.316 µM, first compound 0.00316 µM) 87%; (second compound 0.316 µM, first compound 0.01 µM) 115%; (second compound 0.316 µM, first compound 0.0316 µM) 98.8%; (second compound 0.316 µM, first compound 0.1 µM) 88.5%; (second compound 0.316 µM, first compound 0.316 µM) 81.2%; (second compound 0.316 µM, first compound 1 µM) 86.6%. For the same molecule, the viability, T/C by setting is: (second compound 1 µM, first compound 0.00316 µM) 78.4%; (second compound 1 µM, first compound 0.01 µM) 90.3%; (second compound 1 µM, first compound 0.0316 µM) 86.6%; (second compound 1 µM, first compound 0.1 µM) 85.1%; (second compound 1 µM, first compound 0.316 µM) 84.2%; (second compound 1 µM, first compound 1 µM) 76.9%. Also, the viability, T/C by setting is: (second compound 3.16 µM, first compound 0.00316 µM) 83.6%; (second compound 3.16 µM, first compound 0.01 µM) 106%; (second compound 3.16 µM, first compound 0.0316 µM) 98.5%; (second compound 3.16 µM, first compound 0.1 µM) 72.7%; (second compound 3.16 µM, first compound 0.316 µM) 81.7%; (second compound 3.16 µM, first compound 1 µM) 84.2%. For the same molecule, the viability, T/C reads like this: (second compound 10 µM, first compound 0.00316 µM) 89.8%; (second compound 10 µM, first compound 0.01 µM) 97.4%; (second compound 10 µM, first compound 0.0316 µM) 94.8%; (second compound 10 µM, first compound 0.1 µM) 102%; (second compound 10 µM, first compound 0.316 µM) 91.9%; (second compound 10 µM, first compound 1 µM) 65%.
